Assay results taken from patent US11771124B2, “Composition comprising mannose oligosaccharide and process for making same and use thereof” (CARGILL, INCORPORATED, priority 2017, dated 2023).
Marks after values point to notes of the source that are not given here.

Key:
C2Be1 cell line = assay: Intestinal cell proliferation in vitro (BrdU ELISA); format: cell-based
Method: Cells were treated with products under serum-limited conditions for 4-5 days. BrdU ELISA is used to measure the amount of proliferation, where it measures the amount of BrdU incorporated into proliferating cells (the more proliferation, the more BrdU that will be detected in the DNA of the cells). Levels of proliferation are expressed as a ratio calculated by dividing the BrdU incorporation of test wells by that of the controls that has medium only. […] The assay is repeated in triplicate on two separate occasions. […]

[1] = Trial 3: broiler performance with or without chlortetracycline; format: in vivo, broiler chickens; conditions: Composition A dose 0.02%

| Molecule | % compared to media only (control), Mean (C2Be1 cell line; EGF concentration 10) [%] | Proliferation Ratio (relative to control = 1), Mean (C2Be1 cell line; EGF concentration 10) | % compared to media only (control), Mean (C2Be1 cell line; EGF concentration 100) [%] | Proliferation Ratio (relative to control = 1), Mean (C2Be1 cell line; EGF concentration 100) | BW35 ([1]; broiler chickens up to 35 days of age) | ADFI 0-35 ([1]; broiler chickens) [c g] | ADG 0-35 ([1]; broiler chickens) | BW0 ([1]; broiler chickens) | F:G 0-35 ([1]; broiler chickens) |
| --- | --- | --- | --- | --- | --- | --- | --- | --- | --- |
| EGF: epithelial growth factor, positive control known to affect cell proliferation | 113.5 | 1.13 | 119.6 | 1.20 |  |  |  |  |  |
| CN(C)[C@@H]1C(O)=C(C(N)=O)C(=O)[C@@]2(O)C(O)=C3C(=O)c4c(O)ccc(Cl)c4[C@@](C)(O)[C@H]3C[C@@H]12 [CTC, chlortetracycline] |  |  |  |  | 1978.6^b g | 90.8 | 55.4^b g | 40.2^ns g | 1.64^b |
